The conditions of data set [1]: cited from earlier work.
Data set [2] deals with T1, human neutrophil elastase (HNE) (Homo sapiens, UniProt P08246).
T1 construct: purchased Sigma (St. Louis, Mo.)
T1 sequence (P08246 30-267): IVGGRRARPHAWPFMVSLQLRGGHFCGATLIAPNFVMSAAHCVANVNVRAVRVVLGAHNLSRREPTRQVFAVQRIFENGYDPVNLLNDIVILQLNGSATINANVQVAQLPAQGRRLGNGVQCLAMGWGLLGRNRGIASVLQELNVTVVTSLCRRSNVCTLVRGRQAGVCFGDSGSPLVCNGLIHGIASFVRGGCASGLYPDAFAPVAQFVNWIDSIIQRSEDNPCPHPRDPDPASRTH
Nature of the data set: Human neutrophil elastase inhibition, spectrophotometric assay with chromogenic p-nitroanilide substrate. Type of data set: biochemical. The following applies: individually resynthesised ReO metallopeptides Z-Aaa-Ser-Cys-Val-NH2 (deconvolution of the most active pool). As to the method:
Purified human neutrophil elastase (HNE) was purchased from Sigma (St. Louis, Mo.). The assay was performed spectrophotometrically using a chromogenic p-nitroanilide substrate, MeOSuc-Ala-Ala-Pro-Val-pNA, also purchased from Sigma. The assay protocols were similar to those described by others (e.g., Nakajima K et al: J Biol Chem, 254:4027-4032, 1979). Briefly, 0.05 units of HNE were treated with 1 mM concentration of the library pool in the presence of p-nitroanilide substrate. Spectrophotometric measurement were made at a wavelength of 410 nm. […] Also, among this limited series of compounds, benzyloxycarbonyl group was identified as a preferred R group where Bbb was a Gly, Ala, or Ser residue.
The pool with highest activity, Z-Aaa-Ser-Cys-Val-NH2, was deconvoluted by an iterative resynthesis process. All five individual peptides in this pool were synthesized by the methodologies and protocols of Example 10. Each individual peptide was characterized by mass spectrometry and HPLC. A screening assay was performed as generally described in Example 11. The best results were obtained with Leu or Ile in the position Aaa in the peptide chain. […] Substitution of the three residues Ala, Phe, and Lys(N-Z) at Aaa yielded IC50 values in excess of 1,000 μM.

Setting [3] is: related to the ionic core charge of the metal complex.

pIC50: −log10 of the molar value. Like-named read-outs stand apart in the source and are kept apart here. *: point of attachment. Cbz = O=C(OCc1ccccc1)*

As to `CCOC(=O)[C@H](C[S-])[N-]CCN[C@@H](C[S-])C(=O)OCC.[O-2].[Tc]` [^99mTc-ECD, ethyl cysteinate dimer], the “compartmentalisation / excretion / passage across biological barriers” value in data set [1] (setting [3]) was “pass through the blood-brain barrier”.
In the case of `C/C(=N\O)C(C)NCC(C)(C)CNC(C)/C(C)=N/O` (stereo not shown) [^99mTc-HMPAO, hexamethylpropyleneamine oxime, metal not drawn], the “compartmentalisation / excretion / passage across biological barriers” value in data set [1] (setting [3]) was “pass through the blood-brain barrier”.
On to `O=C(O)CNC(=O)CNC(=O)CNC(=O)CS` [^99mTc-MAG3, mercaptoacetylglycylglycylglycine, metal not drawn], for which the “compartmentalisation / excretion / passage across biological barriers” value in data set [1] (setting [3]) is “excreted through the kidneys”.
In general, pIC50 refers to the IC50 on a negative log10 scale, so that one unit is a factor of ten. Read a low pIC50 as a high IC50. Turning to Cbz-ISCV-NH2, the pIC50 in data set [2] is 3.75.
On the same count and under the same terms, for “Z-Leu-Ser-Cys-Val-NH2 (Cbz-LSCV-NH2; not fully specified; printed as Z-Leu-Ser-Cys-Val-NH2)” the value was 3.86; for Z-Lys(N,-Z)-Ser-Cys-Val-NH2, below 3.00.
methoxyisobutylisonitrile [^99mTc-MIBI]: the “compartmentalisation / excretion / passage across biological barriers” value in data set [1] (in vivo) is “compartmentalized in heart muscles”.
